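These data come from cells grown in 96-well plates and exposed to compound for 48 hours at five concentrations. Here, GI50 denotes the concentration required for 50% inhibition of growth.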 Active and inactive are the calls of the source. No stated cut-off is given here; in the data, active = GI50 up to about 1.1 µM and inactive = higher.
Experiments:
Assay in all cases: NCI tumour cell line growth inhibition, 48 h
SK-MEL-28 = system: SK-MEL-28
Malme-3M = system: Malme-3M
UO-31 = system: UO-31
786-0 = system: 786-0
NCI-H460 = system: NCI-H460
DU-145 = system: DU-145
SNB-75 = system: SNB-75
KM12 = system: KM12
NCI-H226 = system: NCI-H226
LOX IMVI = system: LOX IMVI
HCT-116 = system: HCT-116
U-251 = system: U-251
OVCAR-8 = system: OVCAR-8
OVCAR-5 = system: OVCAR-5
TK-10 = system: TK-10
NCI/ADR-RES = system: NCI/ADR-RES
OVCAR-4 = system: OVCAR-4
SK-MEL-5 = system: SK-MEL-5
SW-620 = system: SW-620
MDA-MB-435 = system: MDA-MB-435
SF-539 = system: SF-539
UACC-257 = system: UACC-257
HCC 2998 = system: HCC 2998
HL-60 = system: HL-60
ACHN = system: ACHN
MCF7 = system: MCF7
PC-3 = system: PC-3
A498 = system: A498
SF-268 = system: SF-268
HOP-62 = system: HOP-62
SK-OV-3 = system: SK-OV-3
MDA-N = system: MDA-N
UACC-62 = system: UACC-62
RPMI-8226 = system: RPMI-8226
NCI-H23 = system: NCI-H23
IGROV-1 = system: IGROV-1
SR = system: SR
CCRF-CEM = system: CCRF-CEM
EKVX = system: EKVX
SN12C = system: SN12C
BT-549 = system: BT-549
OVCAR-3 = system: OVCAR-3
Hs-578T = system: Hs-578T
RXF 393 = system: RXF 393
M14 = system: M14
K562 = system: K562
COLO 205 = system: COLO 205
HCT-15 = system: HCT-15
SNB-19 = system: SNB-19
SF-295 = system: SF-295
MOLT-4 = system: MOLT-4
CAKI-1 = system: CAKI-1
A549 = system: A549
HT-29 = system: HT-29
MDA-MB-231 = system: MDA-MB-231
HOP-92 = system: HOP-92
SK-MEL-2 = system: SK-MEL-2
NCI-H522 = system: NCI-H522

## COc1ccccc1C(C1=C(O)COC1=O)c1cc2c(cc1OC(C)=O)OCO2 (stereo unspecified)
SK-MEL-28
  GI50: > 100 µM (inactive)
Malme-3M
  GI50: > 100 µM (inactive)
UO-31
  GI50: > 100 µM (inactive)
786-0
  GI50: > 100 µM (inactive)
NCI-H460
  GI50: > 100 µM (inactive)
DU-145
  GI50: > 100 µM (inactive)
SNB-75
  GI50: > 100 µM (inactive)
KM12
  GI50: > 100 µM (inactive)
NCI-H226
  GI50: > 100 µM (inactive)
LOX IMVI
  GI50: > 100 µM (inactive)
HCT-116
  GI50: > 100 µM (inactive)
U-251
  GI50: > 100 µM (inactive)
OVCAR-8
  GI50: > 100 µM (inactive)
OVCAR-5
  GI50: > 100 µM (inactive)
TK-10
  GI50: > 100 µM (inactive)
NCI/ADR-RES
  GI50: > 100 µM (inactive)
OVCAR-4
  GI50: > 100 µM (inactive)
SK-MEL-5
  GI50: > 100 µM (inactive)
SW-620
  GI50: > 100 µM (inactive)
MDA-MB-435
  GI50: > 100 µM (inactive)
SF-539
  GI50: > 100 µM (inactive)
UACC-257
  GI50: > 100 µM (inactive)
HCC 2998
  GI50: > 100 µM (inactive)
HL-60
  GI50: > 100 µM (inactive)
ACHN
  GI50: > 100 µM (inactive)
MCF7
  GI50: > 100 µM (inactive)
PC-3
  GI50: > 100 µM (inactive)
A498
  GI50: > 100 µM (inactive)
SF-268
  GI50: > 100 µM (inactive)
HOP-62
  GI50: > 100 µM (inactive)
SK-OV-3
  GI50: > 100 µM (inactive)
MDA-N
  GI50: > 100 µM (inactive)
UACC-62
  GI50: > 100 µM (inactive)
RPMI-8226
  GI50: > 100 µM (inactive)
NCI-H23
  GI50: > 100 µM (inactive)
IGROV-1
  GI50: > 100 µM (inactive)
SR
  GI50: > 100 µM (inactive)
CCRF-CEM
  GI50: > 100 µM (inactive)
EKVX
  GI50: > 100 µM (inactive)
SN12C
  GI50: > 100 µM (inactive)
BT-549
  GI50: > 100 µM (inactive)
OVCAR-3
  GI50: > 100 µM (inactive)
Hs-578T
  GI50: > 100 µM (inactive)
RXF 393
  GI50: > 100 µM (inactive)
M14
  GI50: > 100 µM (inactive)
K562
  GI50: > 100 µM (inactive)
COLO 205
  GI50: > 100 µM (inactive)
HCT-15
  GI50: > 100 µM
SNB-19
  GI50: > 100 µM (inactive)
SF-295
  GI50: > 100 µM (inactive)
MOLT-4
  GI50: > 100 µM (inactive)
CAKI-1
  GI50: > 100 µM (inactive)
A549
  GI50: > 100 µM (inactive)
HT-29
  GI50: > 100 µM (inactive)
MDA-MB-231
  GI50: > 100 µM (inactive)

## N#C/C=C\c1ccc(-c2cc(C(F)(F)F)cc(C(F)(F)F)c2)o1
SK-MEL-28
  GI50: 45.3 µM (inactive)
Malme-3M
  GI50: 64.4 µM (inactive)
UO-31
  GI50: > 100 µM (inactive)
786-0
  GI50: 27.2 µM (inactive)
NCI-H460
  GI50: 86.3 µM (inactive)
DU-145
  GI50: > 100 µM (inactive)
SNB-75
  GI50: 18.7 µM (inactive)
KM12
  GI50: 49 µM (inactive)
NCI-H226
  GI50: 55.8 µM (inactive)
LOX IMVI
  GI50: 38.7 µM (inactive)
HCT-116
  GI50: 35.4 µM (inactive)
U-251
  GI50: 14.4 µM (inactive)
OVCAR-8
  GI50: 23 µM (inactive)
OVCAR-5
  GI50: > 100 µM (inactive)
NCI/ADR-RES
  GI50: 41.6 µM (inactive)
OVCAR-4
  GI50: 91.8 µM (inactive)
SK-MEL-5
  GI50: 14.9 µM (inactive)
SW-620
  GI50: 49.7 µM (inactive)
MDA-MB-435
  GI50: 2.57 µM (inactive)
SF-539
  GI50: 10 µM (inactive)
UACC-257
  GI50: > 100 µM (inactive)
HCC 2998
  GI50: 21.6 µM (inactive)
HL-60
  GI50: 17.7 µM (inactive)
ACHN
  GI50: > 100 µM (inactive)
MCF7
  GI50: 71.8 µM (inactive)
PC-3
  GI50: > 100 µM (inactive)
A498
  GI50: 26.5 µM (inactive)
SF-268
  GI50: 25.9 µM (inactive)
HOP-62
  GI50: 21.1 µM (inactive)
SK-OV-3
  GI50: 30.3 µM (inactive)
MDA-N
  GI50: 22 µM (inactive)
UACC-62
  GI50: 23.3 µM (inactive)
HOP-92
  GI50: 20.7 µM (inactive)
RPMI-8226
  GI50: > 100 µM (inactive)
SK-MEL-2
  GI50: 15.6 µM (inactive)
NCI-H23
  GI50: 13.3 µM (inactive)
IGROV-1
  GI50: 47.2 µM (inactive)
SR
  GI50: 19.3 µM (inactive)
CCRF-CEM
  GI50: 47 µM (inactive)
EKVX
  GI50: 34.1 µM (inactive)
SN12C
  GI50: 35.6 µM (inactive)
BT-549
  GI50: 36.7 µM (inactive)
OVCAR-3
  GI50: > 100 µM (inactive)
Hs-578T
  GI50: 18.4 µM (inactive)
RXF 393
  GI50: 44.6 µM (inactive)
M14
  GI50: 56.4 µM (inactive)
K562
  GI50: 42.1 µM (inactive)
COLO 205
  GI50: > 100 µM (inactive)
SNB-19
  GI50: 30 µM (inactive)
SF-295
  GI50: 19.4 µM (inactive)
MOLT-4
  GI50: 57.4 µM (inactive)
CAKI-1
  GI50: 35.3 µM (inactive)
A549
  GI50: 91.6 µM (inactive)
HT-29
  GI50: 94.4 µM (inactive)
NCI-H522
  GI50: 48 µM (inactive)
MDA-MB-231
  GI50: 36.8 µM (inactive)
